Measurements from the NIST ThermoML archive (doi:10.1016/j.fluid.2009.02.007).

Assay: osmotic coefficient (dimensionless); mn = molality of the nth substance listed, in mol/kg
Conditions: 101 kPa, Liquid, Vapor pressure osmometry

CCCCn1cc[n+](C)c1.COS(=O)(=O)[O-] [1-butyl-3-methylimidazolium methyl sulfate] + O
osmotic coefficient
Conditions | 298.15 K | 308.15 K | 318.15 K | 328.15 K
m1 = 0.0132 | 0.923 | 0.937 | 0.968 | 0.987
m1 = 0.0225 | 0.895 | 0.921 | 0.958 | 0.977
m1 = 0.0328 | 0.884 | 0.897 | 0.94 | 0.966
m1 = 0.0434 | 0.863 | 0.885 | 0.896 | 0.959
m1 = 0.0634 | 0.837 | 0.872 | 0.882 | 0.896
m1 = 0.078 | 0.821 | 0.836 | 0.877 | 0.887
m1 = 0.1205 | 0.809 | 0.813 | 0.839 | 0.874
m1 = 0.157 | 0.791 | 0.809 | 0.839 | 0.858
m1 = 0.1944 | 0.78 | 0.802 | 0.814 | 0.857
m1 = 0.2801 | 0.767 | 0.779 | 0.802 | 0.84
m1 = 0.3552 | 0.741 | 0.758 | 0.775 | 0.81
m1 = 0.4687 | 0.721 | 0.749 | 0.762 | 0.8
m1 = 0.7057 | 0.71 | 0.74 | 0.756 | 0.786
m1 = 0.9552 | 0.698 | 0.716 | 0.732 | 0.76
m1 = 1.44 | 0.692 | 0.708 | 0.73 | 0.752
m1 = 2.177 | 0.693 | 0.7 | 0.726 | 0.743

CCCCn1cc[n+](C)c1.F[B-](F)(F)F [1-butyl-3-methylimidazolium tetrafluoroborate] + O
osmotic coefficient
Conditions | 298.15 K | 308.15 K | 318.15 K | 328.15 K
m1 = 0.012 | 1.023 | 1.009 | 1.006 | 0.994
m1 = 0.0223 | 0.994 | 0.974 | 0.986 | 0.978
m1 = 0.0369 | 0.987 | 0.959 | 0.955 | 0.965
m1 = 0.045 | 0.956 | 0.956 | 0.96 | 0.959
m1 = 0.0652 | 0.952 | 0.926 | 0.937 | 0.92
m1 = 0.0855 | 0.862 | 0.879 | 0.892 | 0.9
m1 = 0.1058 | 0.854 | 0.872 | 0.887 | 0.883
m1 = 0.1629 | 0.825 | 0.823 | 0.826 | 0.839
m1 = 0.2108 | 0.804 | 0.787 | 0.802 | 0.797
m1 = 0.2695 | 0.749 | 0.766 | 0.766 | 0.772
m1 = 0.3284 | 0.699 | 0.708 | 0.748 | 0.761
m1 = 0.4307 | 0.677 | 0.685 | 0.693 | 0.726
m1 = 0.533 | 0.648 | 0.666 | 0.673 | 0.685
m1 = 0.6375 | 0.619 | 0.622 | 0.634 | 0.647
m1 = 0.7233 | 0.575 | 0.587 | 0.61 | 0.632
m1 = 0.9322 | 0.523 | 0.545 | 0.564 | 0.589
m1 = 1.292 | 0.462 | 0.495 | 0.508 | 0.517
m1 = 2.066 | 0.392 | 0.396 | 0.412 | 0.415

CCOS(=O)(=O)[O-].CCn1cc[n+](C)c1 [1-ethyl-3-methylimidazolium ethyl sulfate] + O
osmotic coefficient
Conditions | 298.15 K | 308.15 K | 318.15 K | 328.15 K
m1 = 0.0086 | 0.973 | 0.981 | 1.019 | 1.018
m1 = 0.0185 | 0.957 | 0.943 | 0.972 | 0.975
m1 = 0.0284 | 0.937 | 0.921 | 0.934 | 0.955
m1 = 0.0376 | 0.921 | 0.917 | 0.93 | 0.936
m1 = 0.057 | 0.871 | 0.862 | 0.868 | 0.886
m1 = 0.0749 | 0.852 | 0.862 | 0.859 | 0.858
m1 = 0.0938 | 0.83 | 0.838 | 0.845 | 0.85
m1 = 0.1269 | 0.815 | 0.817 | 0.831 | 0.842
m1 = 0.1704 | 0.782 | 0.797 | 0.813 | 0.815
m1 = 0.2087 | 0.774 | 0.779 | 0.797 | 0.815
m1 = 0.2648 | 0.754 | 0.764 | 0.797 | 0.8
m1 = 0.3276 | 0.751 | 0.766 | 0.793 | 0.796
m1 = 0.4235 | 0.736 | 0.755 | 0.776 | 0.787
m1 = 0.5106 | 0.724 | 0.745 | 0.772 | 0.781
m1 = 0.6979 | 0.712 | 0.727 | 0.742 | 0.755
m1 = 0.8919 | 0.706 | 0.721 | 0.73 | 0.747
m1 = 1.12 | 0.697 | 0.711 | 0.717 | 0.729
m1 = 1.606 | 0.696 | 0.707 | 0.715 | 0.719
m1 = 1.889 | 0.694 | 0.707 | 0.717 | 0.726
m1 = 2.763 | 0.733 | 0.747 | 0.759 | 0.766
